The species entered for assay [1] is Homo sapiens. The assay is described as follows: Compound was evaluated for the ability to inhibit […] induced platelet aggregation (U-IPA) in human platelet rich plasma. Conditions: read-out: I50. Type of assay: functional.
The species named for assay [2] is Homo sapiens. The assay is described as follows: Compound was evaluated for the ability to inhibit arachidonic acid induced platelet aggregation (AAIPA) in human platelet rich plasma. Type of assay: functional. The conditions noted are these: read-out: I50.
The next assay addresses T1, Thromboxane A2 receptor (Homo sapiens, UniProt P21731).
T1 sequence (P21731 whole entry): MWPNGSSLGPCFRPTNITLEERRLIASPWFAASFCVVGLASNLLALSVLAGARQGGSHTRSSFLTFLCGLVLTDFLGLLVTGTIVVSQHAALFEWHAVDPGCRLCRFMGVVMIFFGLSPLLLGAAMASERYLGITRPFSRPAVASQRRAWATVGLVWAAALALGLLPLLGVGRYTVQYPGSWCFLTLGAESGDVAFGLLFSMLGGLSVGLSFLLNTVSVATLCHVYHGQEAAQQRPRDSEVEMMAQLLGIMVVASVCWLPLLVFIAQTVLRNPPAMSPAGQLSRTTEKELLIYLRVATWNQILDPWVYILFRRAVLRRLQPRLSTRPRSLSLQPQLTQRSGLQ
The assay is described as follows: Compound was evaluated for the receptor binding studies with Thromboxane A2 receptor using [3H]-SQ 29548 as radioligand in human platelet membranes. Type of assay: cell membranes.

The next assay has as its system Mus musculus. The assay is described as follows: Compound (0.2 mpk/po) was evaluated for the ability to protect from U-46,619 induced lethality in mice as a function of time one half of the population survives from time of dosage. Type of assay: functional.

With `CC(C)(C)CCCCCCNC(=O)c1coc(C2C3CCC(O3)C2Cc2ccccc2CCC(=O)O)n1` (stereo unspecified), the IC50 in the assay listed under Homo sapiens [1] worked out at 5 nM; in the assay filed under Homo sapiens [2], 3 nM.

For the compound `O=C(O)CCc1ccccc1CC1C2CCC(O2)C1c1nc(C(=O)NCCCCc2ccc(Cl)cc2)co1` (stereo unspecified), the IC50 in the assay filed under Homo sapiens [1] is 13 nM; in the assay filed under Homo sapiens [2], 4 nM.

For `CCCCCCCNC(=O)c1coc(C2C3CCC(O3)C2Cc2ccccc2CCC(=O)O)n1` (stereo unspecified), the IC50 in the assay filed under Homo sapiens [1] worked out at 13 nM; in the assay listed under Homo sapiens [2] it was 2 nM.

For `O=C(O)CCc1ccccc1CC1C2CCC(O2)C1c1nc(C(=O)NC2CCCCC2)co1` (stereo unspecified), the IC50 in the assay listed under Homo sapiens [1] turned out to be 25 nM; in the assay listed under Homo sapiens [2], 3 nM.

For orientation: Kd means a measure of binding affinity in units of concentration. Read a low Kd as a tighter complex. For `O=C(O)CCc1ccccc1CC1C2CCC(O2)C1c1nc(C(=O)NCCCCC2CCCCC2)co1` (stereo unspecified), the Kd at Thromboxane A2 receptor is 0.1 nM. In addition, the IC50 was found to be 6 nM in the assay listed under Homo sapiens [1] and 2 nM in the assay filed under Homo sapiens [2]. Moreover, in the assay on Mus musculus, the T50 amounted to 23 h.

Take `CNC(=O)c1coc(C2C3CCC(O3)C2Cc2ccccc2CCC(=O)O)n1` (stereo unspecified): the values for the IC50 in the assay filed under Homo sapiens [1] and in the assay listed under Homo sapiens [2] were 81 nM and 20 nM, respectively.

Consider `CCCCCCCCCCNC(=O)c1coc(C2C3CCC(O3)C2Cc2ccccc2CCC(=O)O)n1` (stereo unspecified), for which the IC50 in the assay listed under Homo sapiens [1] was 6 nM; in the assay listed under Homo sapiens [2] it was 1 nM.

(Values after ChEMBL document CHEMBL1126002, “Interphenylene 7-oxabicyclo[2.2.1]heptanes. SQ33,961: a new potent, long-acting thromboxane antagonist” (Bioorg Med Chem Lett, 1991).)
